Results taken from patent US9708339B2, “1,3-benzothiazinone, sulfoxide, and sulfone compounds with electrophilic substituent” (priority 2014, dated 2017).
Entries after “also recorded” stand apart in the source; their conditions may differ. Where two headings read alike, the source gives them in different places.

Assays:
DprE1 = DprE1 (Mycobacterium tuberculosis, UniProt P9WJF0); conditions: cited from earlier work
H37Rv strain of Mtb = assay: Microplate alamar blue assay (MABA), in vitro anti-TB activity in 7H12 and GAS media; assay type: cell-based, Mycobacterium tuberculosis; conditions: for MIC / percentage in brackets after MIC >1, 7H12 / percentage in brackets after MIC >1, GAS: H37Rv; for activity against H37Rv strain of Mtb (in words): in vitro; for percentage in brackets after MIC >1, 7H12: 7H12 medium; for percentage in brackets after MIC >1, 7H12 / percentage in brackets after MIC >1, GAS: bracketed percentage not defined in the patent; for percentage in brackets after MIC >1, GAS: GAS medium
[1] = Mycobacterium tuberculosis, 7H12 medium (7H9 plus casitone, palmitic acid, albumin and catalase), read-out: MABA:MIC 7H12
[2] = Mycobacterium tuberculosis, GAS (glycerol-alanine-salts) medium, read-out: MABA:MIC GAS
[3] = 7H12 medium (7H9 plus casitone, palmitic acid, albumin and catalase), read-out: MABA:MIC 7H12
[4] = GAS (glycerol-alanine-salts) medium, read-out: MABA:MIC GAS

Sequence of DprE1 (P9WJF0 whole entry): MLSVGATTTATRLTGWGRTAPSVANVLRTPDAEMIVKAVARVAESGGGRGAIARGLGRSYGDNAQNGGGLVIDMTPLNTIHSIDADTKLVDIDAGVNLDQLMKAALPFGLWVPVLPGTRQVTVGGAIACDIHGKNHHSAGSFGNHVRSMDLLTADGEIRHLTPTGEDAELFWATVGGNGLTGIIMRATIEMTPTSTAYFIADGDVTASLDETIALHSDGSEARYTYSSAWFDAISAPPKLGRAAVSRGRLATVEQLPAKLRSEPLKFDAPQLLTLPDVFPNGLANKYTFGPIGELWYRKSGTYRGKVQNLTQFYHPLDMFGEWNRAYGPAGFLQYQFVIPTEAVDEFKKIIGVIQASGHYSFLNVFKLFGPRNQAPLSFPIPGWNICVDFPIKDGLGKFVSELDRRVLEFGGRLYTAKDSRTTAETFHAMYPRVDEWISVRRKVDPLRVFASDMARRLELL

Row | SMILES | MIC (H37Rv strain of Mtb; [1]) [µM] | MIC (H37Rv strain of Mtb; [2]) [µM] | MIC (H37Rv strain of Mtb; [3]) [µM] | MIC (H37Rv strain of Mtb; [4]) [µM] | also measured
1 | C[C@H]1COC2(CCN(c3nc(=O)c4cc(C(F)(F)F)cc([N+](=O)[O-])c4s3)CC2)O1 [BTZ043, reference compound] | < 0.004 | < 0.004 | – | – | mode of DprE1 inhibition (in words) (DprE1): suicide inhibitor
2 | C[C@H]1COC2(CCN(c3nc(=O)c4cc(C(F)(F)F)cc(N=[N+]=[N-])c4s3)CC2)O1 [Compound 3] | 0.47 | 0.46 | – | – | activity against H37Rv strain of Mtb (in words) (H37Rv strain of Mtb): outstanding activity; also recorded: impressive activity; activity against H37Rv strain of Mtb (in words) (H37Rv strain of Mtb; listed as BTZ-N3): impressive activity
3 | C[C@H]1COC2(CCN(c3nc(=O)c4cc(C(F)(F)F)cc(N)c4s3)CC2)O1 [Compound 6] | – | – | > 1 | > 1 | percentage in brackets after MIC >1, 7H12 (H37Rv strain of Mtb): 87%; percentage in brackets after MIC >1, GAS (H37Rv strain of Mtb): 0%
4 | CC1COC2(CCN(c3nc(=O)c4cc(C(F)(F)F)ccc4s3)CC2)O1 (centres unmarked) [Compound 8] | – | – | > 1 | > 1 | percentage in brackets after MIC >1, 7H12 (H37Rv strain of Mtb): 87%; percentage in brackets after MIC >1, GAS (H37Rv strain of Mtb): 36%; activity against H37Rv strain of Mtb (in words) (H37Rv strain of Mtb): not significantly active; also recorded: reduced
5 | C[C@H]1COC2(CCN(c3nc(=O)c4cc(C(F)(F)F)cc(-n5cc(CN(C)C)nn5)c4s3)CC2)O1 [Compound 9] | 0.87 | 0.95 | – | – | –
6 | NNC(=O)c1ccncc1 [INH, reference compound] | – | – | 0.1 | 0.03 | –
7 | O=c1nc(N2CCN(CC3CCCCC3)CC2)sc2c([N+](=O)[O-])cc(C(F)(F)F)cc12 [PBTZ169] | – | – | – | – | mode of DprE1 inhibition (in words) (DprE1): suicide inhibitor
8 | CO[C@H]1/C=C/O[C@@]2(C)Oc3c(C)c(O)c4c(O)c(c(/C=N/N5CCN(C)CC5)c(O)c4c3C2=O)NC(=O)/C(C)=C\C=C\[C@H](C)[C@H](O)[C@@H](C)[C@@H](O)[C@@H](C)[C@H](OC(C)=O)[C@@H]1C [Rifampin, reference compound] | 0.05 | 0.04 | – | – | –
